Here are results for 5 molecules from patent US20090011405A1 (priority 2003, published 2009).

Experiment [1] relates to JUN1 and JUNZ (c-Jun self dimerization). In words: Reverse two-hybrid assay with JUN1 and JUNZ, background and plating efficiency. In kind it is cell-based, yeast. The method, then: A reverse two-hybrid assay was performed using the interacting proteins JUN1 (amino acids 187-334, inclusive, of the JUN protein) and JUNZ (amino acids 259-309, inclusive, of the JUN protein) both of which comprise the leucine zipper domain of c-Jun (ie the region necessary for self dimerization). As a positive control FOSZ (amino acids 111-195, inclusive, of the FOS protein), a known blocker of c-Jun self dimerization was used. As a negative control, the expression vector alone was used. Gene constructs were transformed into cells comprising the negative selectable markers URA3 and CYH2.
Cells comprising only the interacting partners or the interacting partners and FOSZ (19F) or the interacting partners and the negative control (19) were grown in various concentrations of uracil (from 10 mg/L to 0 mg/L). All cells were also plated in the presence of 0.02% galactose; 0.04% FOA; and 5 μg/ml cycloheximide.
Background was determined by estimating the number of cells (colonies) that expressed only JUN1 and JUNZ and were still capable of growing in the presence of 5-FOA. Plating efficiency was determined by estimating the number of cells out of the 500 plated that expressed JUN1, JUNZ and FOSZ that were capable of growing in each set of conditions.
Using the same expression constructs and cells as in Example 2 cells were plated in the presence of increasing concentrations of 5-FOA and uracil. […]

For experiment [2], the target named is JUNZ (amino acids 259-309, inclusive, of the JUN protein). As to the kind of experiment: cell-based or functional assay.
In experiment [3] the target is JUN1 (amino acids 187-334, inclusive, of the JUN protein). In words: cell-based or functional assay.

On to `C[C@@H]1C[C@@H]([C@H](O)CC2CC(=O)NC(=O)C2)C(=O)[C@@H](C)C1` [cycloheximide], for which the “background (effect of increasing cycloheximide concentration)” value in experiment [1] (JUN1/JUNZ cells, 0.2 or 0.5 mg/L uracil, 0.06% 5-FOA, 10000 or 100000 cells plated) was “lower levels of background”.

With `O=c1cc[nH]c(=O)[nH]1` [uracil], the “background (effect of increased uracil concentration)” value in experiment [1] (JUN1/JUNZ cells, uracil 10 to 0 mg/L, 0.02% galactose, 0.04% FOA, 5 μg/ml cycloheximide) is reported as “increased background”. The “plating efficiency (effect of increased uracil concentration)” value in experiment [1] (JUN1/JUNZ/FOSZ cells, uracil 10 to 0 mg/L, 0.02% galactose, 0.04% FOA, 5 μg/ml cycloheximide) is on record as “reduced plating efficiency”. Moreover, the background in experiment [1] (cells expressing only JUN1 and JUNZ, 0.25 and 0.5 mg/L uracil, 0.02% galactose, 0.04% FOA, 5 μg/ml cycloheximide) is on record as 0%.

With “JUN1 (amino acids 187-334, inclusive, of the JUN protein)”, the background (colonies expressing only JUN1 and JUNZ that still grow in the presence of 5-FOA) in experiment [2] amounted to 0%.

For “FOSZ (amino acids 111-195, inclusive, of the FOS protein) (from UniProt P01100 111-195)”, the plating efficiency (cells expressing JUN1, JUNZ and FOSZ that grow under counter-selection) in experiment [2] and in experiment [3] was over 40% in each case.

B1: FOSZ: amino acids 111-195, inclusive, of the FOS protein, a known blocker of c-Jun self dimerization (protein)
chain: VVKTMTGGRAQSIGRRGKVEQLSPEEEEKRRIRRERNKMAAAKCRNRRRELTDTLQAETDQLEDEKSALQTEIANLLKEKEKLEF
With B1, the plating efficiency entry in experiment [1] (cells expressing JUN1, JUNZ and FOSZ (19F), 500 plated, low concentrations of uracil, 0.02% galactose, 0.04% FOA, 5 μg/ml cycloheximide) is on record as “greater than 40%”.
